Literature values in patent publication US20080160086A1, “Delivery Systems For Calcium” (Scepter Holdings, Inc., priority 2004, published 2008).

Conditions: in humans; U.S. Pat. No. 6,582,722

bioavailability: high bioavailability
Substance: calcium picolinate [calcium picolinate chelate]
